Tests used:
[1] = tested on: E. coli endotoxin 026:B6 lipopolysaccharide induced mastitis in lactating cows; format: in vivo
Experimental: A blinded in-vivo study with a parallel group design was conducted in 2003. The study was conducted according to Good Laboratory Practices.
The animals were clinically examined before endotoxin-challenge and at 2 h (before treatment), 4 h, 6 h, 8 h, 10 h, 24 h, 34 h, 48 h, 72 h, 7 days, and 14 days after endotoxin-challenge.
The size of the challenged udder quarter was documented using the following score: • 0 Normal • 1 Slight increase up to 20% • 2 20-50% increase • 3 More than 50% increase
Ruminal contractions during a 2 minutes period were examined by auscultation in the left paralumbar fossa. In painful conditions of any kind, the frequency of ruminal contractions in ruminants tends to decrease.
Milk samples for analysis of thromboxane B2 (TBX)—a relevant mediator of inflammation—were taken from the endotoxin-challenged quarter before endotoxin challenge and at 2 h (before treatment), 4 h, 6 h, 8 h, 10 h, and 24 h after endotoxin-challenge.
Milk somatic cell count (SCC) was measured before endotoxin-challenge and at 10 h, 24 h, 34 h, 48 h, 72 h, 7 days, and 14 days after challenge.

mastitis cases = settings: infused intramammarily in special vehicle together with amoxicillin/clavulanic acid; cited from earlier work

SMILES: Cc1cnc(NC(=O)C2=C(O)c3ccccc3S(=O)(=O)N2C)s1 [meloxicam]
- ruminal contractions in 2 min, mean ± S.D. ([1]; 30 mg meloxicam per quarter, at 24 h after challenge): 3.4±0.55
- size of challenged udder quarter, mean score ± S.D. ([1]; 30 mg meloxicam per quarter, intramammary 2 h after challenge, at 10 h after challenge): 1.2±0.44 score (0-3)
- standardised difference of udder size score versus untreated ([1]; 30 mg meloxicam, 10 h, difference in means divided by larger S.D. (untreated group)): 1.2
- standardised difference of ruminal contractions versus untreated ([1]; 30 mg meloxicam, 24 h, calculated with larger S.D. (untreated group)): 0.9
- local and systemic tolerance ([1]; intramammary, dose range 10-50 mg per affected udder quarter): good

SMILES: Cc1c(Nc2ncccc2C(=O)O)cccc1C(F)(F)F [flunixin, flunixin meglumine]
- effect on pain perception (mastitis cases): no beneficial effect on pain perception

Reference: patent US20050245510A1 (Boehringer Ingelheim Vetmedica GmbH, priority 2004, published 2005)
